Source: patent publication US6579881B2 (Eisai Co., Ltd., priority 1997, dated 2003)
Where two headings read alike, the source gives them in different places.

Key:
serotonin 1A receptor = target: T1, serotonin 1A receptor (Rattus norvegicus, UniProt P19327); test: Binding test on [3H] 8-hydroxy-dipropylaminotetralin (serotonin 1A receptor); conditions: [3H] 8-OH-DPAT 0.5 nM, receptor fraction of rat hippocampus; read-out: 5HT1a
T1 construct: To the receptor fraction of the hippocampus were added a test compound and 0.5 nM of [^3H]; 8-hydroxy-dipropylaminotetralin; from tissue; host or cells: SD rat hippocampus, membrane (receptor) fraction
T1 sequence (P19327 1-422): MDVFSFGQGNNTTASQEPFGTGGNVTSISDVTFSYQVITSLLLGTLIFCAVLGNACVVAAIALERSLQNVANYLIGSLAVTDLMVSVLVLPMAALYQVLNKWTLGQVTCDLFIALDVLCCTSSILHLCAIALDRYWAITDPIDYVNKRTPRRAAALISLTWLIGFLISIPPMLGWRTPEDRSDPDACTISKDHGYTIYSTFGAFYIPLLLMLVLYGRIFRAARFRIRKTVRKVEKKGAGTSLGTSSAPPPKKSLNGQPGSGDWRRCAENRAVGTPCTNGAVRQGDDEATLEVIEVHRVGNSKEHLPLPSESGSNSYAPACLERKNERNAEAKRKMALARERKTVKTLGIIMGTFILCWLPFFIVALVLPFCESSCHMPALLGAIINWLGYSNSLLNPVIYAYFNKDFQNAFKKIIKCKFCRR

serotonin 2 receptor = serotonin 2 receptor (Rattus norvegicus, UniProt P14842); test: Binding test on [3H] ketanserin (serotonin 2 receptor); conditions: [3H] ketanserin 0.3 nM, receptor fraction of rat cerebral cortex; read-out: 5HT2
serotonin 2 receptor, sequence (P14842 whole entry): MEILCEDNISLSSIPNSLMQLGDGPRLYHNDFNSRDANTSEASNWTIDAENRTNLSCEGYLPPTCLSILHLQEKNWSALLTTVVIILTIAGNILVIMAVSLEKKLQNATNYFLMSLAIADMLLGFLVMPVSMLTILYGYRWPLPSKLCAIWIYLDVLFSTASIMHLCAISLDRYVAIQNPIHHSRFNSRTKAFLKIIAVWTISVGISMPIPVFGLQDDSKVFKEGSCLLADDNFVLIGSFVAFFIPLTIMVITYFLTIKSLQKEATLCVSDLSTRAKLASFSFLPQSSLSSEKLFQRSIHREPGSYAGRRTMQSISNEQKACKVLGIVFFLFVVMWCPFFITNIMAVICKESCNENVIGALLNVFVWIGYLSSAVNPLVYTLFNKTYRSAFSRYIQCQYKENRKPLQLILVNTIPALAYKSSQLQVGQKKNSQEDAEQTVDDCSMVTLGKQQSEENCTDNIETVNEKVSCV

α1 adrenalin receptor = test: Binding test on [3H] prazosin (α1 adrenalin receptor); design: species or system rat; conditions: [3H] prazosin about 0.2 nM, receptor fraction of rat cerebral cortex
[1] = test system: Straub's tail reaction (hyper-muscle tone in the tail); test: Morphine induced Straub's tail phenomenon in mice; format: in vivo; conditions: Mus musculus, male ddY mice, 15 min before morphine hydrochloride 12.5 mg/kg s.c., statistically significant (p<0.05)
[2] = ip, i.p., read-out: minimal effective dose i.p.
[3] = po, p.o., read-out: minimal effective dose p.o.

SMILES	Ki (serotonin 1A receptor) [nM]	Ki (serotonin 2 receptor) [nM]	Ki (α1 adrenalin receptor) [nM]	minimal effective dose [1, 2] [mg/kg]	minimal effective dose [1, 3] [mg/kg]	melting point [°C]
CC(=O)NCc1ccc2ccn(C3CCN(CCc4ccc(F)cc4)CC3)c2c1 [Example 285, 1-[1-(4-fluorophenethyl)piperidin-4-yl]-6-acetamidomethylindole]	0.44	1.39	26.8	1	1	127 to 128
CCNC(=O)Cc1ccc2c(c1)N(C1CCN(CCc3ccc(F)cc3)CC1)CC2 [Example 149, 1-[1-(4-fluorophenethyl)piperidin-4-yl]-6-(ethylcarbamoylmethyl)indoline]	7.44	0.5	304	1	≤ 3	
OCCOc1ccc2c(c1)N(C1CCN(CCc3ccc(F)cc3)CC1)CC2 [Example 121, 1-[1-(4-fluorophenethyl)piperidin-4-yl]-6-hydroxyethoxyindoline]	0.5	22.8	58.2		10	
Fc1ccc(CCN2CCC(N3CCc4ccccc43)CC2)cc1 [Example 9, 1-[1-(4-fluorophenethyl)piperidin-4-yl]indoline]	3	11.6	76.5	10		
COc1ncccc1C(O)c1ccc2c(c1)N(C1CCN(CCc3ccc(F)cc3)CC1)CC2 (stereo not drawn) [Example 184, 1-[1-(4-fluorophenethyl)piperidin-4-yl]-6-[1-hydroxy-1-(2-methoxypyridin-3-yl)methyl]indoline]	15.1	3.06	188		3	
CC(=O)NCCc1ccc2c(c1)N(C1CCN(CCc3ccc(F)cc3)CC1)CC2 [Example 166, 1-[1-(4-fluorophenethyl)piperidin-4-yl]-6-acetamidoethylindoline]	0.79	17.1	194	3	3	
COc1ccc2c(c1)CCCC2C1CCN(CCc2ccc(F)cc2)CC1 (stereo not drawn) [Example 277, 1-[2-(4-fluorophenyl)ethyl]-4-(6-methoxy-1,2,3,4-tetrahydronaphthalen-1-yl)piperidine]	22.8	3.9	354	< 1	30	
